From patent US20060276498A1 (Wyeth, priority 2005, published 2006)

Biological target: T1, human Cot/Tpl2 kinase (Homo sapiens, UniProt P41279)
T1 construct: human Cot/Tpl2 kinase construct encoding residues 30-398; 6His (N); made in house; host or cells: Sf9 insect cells (baculovirus system, BD Biosciences)
Assay: Tpl2/Cot kinase assay, GST-MEK1 phosphorylation detected by ELISA (DELFIA Eu)
Format: biochemical

[1] = Table 2, additional representative compounds
[2] = Table 1, 0.4 nM Tpl2, 35 nM GST-MEK1, 50 uM ATP, 1 h at 30° C.

T1 sequence (P41279 30-398): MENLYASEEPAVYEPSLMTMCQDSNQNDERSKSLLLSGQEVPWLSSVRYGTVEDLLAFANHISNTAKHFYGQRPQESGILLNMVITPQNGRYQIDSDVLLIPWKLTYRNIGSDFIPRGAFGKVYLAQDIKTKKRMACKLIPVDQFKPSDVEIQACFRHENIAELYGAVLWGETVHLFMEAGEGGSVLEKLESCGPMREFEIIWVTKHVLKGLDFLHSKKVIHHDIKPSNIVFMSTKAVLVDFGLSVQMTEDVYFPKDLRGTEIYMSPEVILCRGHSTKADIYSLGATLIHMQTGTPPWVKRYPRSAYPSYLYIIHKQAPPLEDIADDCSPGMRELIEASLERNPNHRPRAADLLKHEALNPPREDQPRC

SMILES | IC50 [1] | IC50 [2]
COc1ccccc1CNc1cc2c(Nc3ccc(F)c(Cl)c3)c(C#N)cnc2cn1 [Example 124, 4-[(3-chloro-4-fluorophenyl)amino]-6-[(2-methoxybenzyl)amino]-1,7-naphthyridine-3-carbonitrile] | 370 nM | –
N#Cc1cnc2cnc(NCCN3CCOCC3)cc2c1Nc1cccc(Oc2ccccc2)c1 [Example 2, 6-(2-morpholinoethylamino)-4-(3-phenoxyphenylamino)-1,7-naphthyridine-3-carbonitrile] | – | 11600 nM
CCN1CCC[C@@H]1CNc1cc2c(Nc3ccc(F)c(Cl)c3)c(C#N)cnc2cn1 [Example 75] | – | 7000 nM
N#Cc1cnc2cnc(N[C@H](CN3CCOCC3)c3ccccc3)cc2c1Nc1ccc(F)c(Cl)c1 [Example 58, 4-[(3-chloro-4-fluorophenyl)amino]-6-{[(1S)-2-morpholin-4-yl-1-phenylethyl]amino}-1,7-naphthyridine-3-carbonitrile] | – | 3700 nM
CN(c1c(C#N)cnc2cnc(F)cc12)C1CCCCCC1 [Example 136, 4-[cycloheptyl(methyl)amino]-6-fluoro-1,7-naphthyridine-3-carbonitrile] | 360 nM | –
N#Cc1cnc2cnc(NCCN3CCOCC3)cc2c1Nc1cc(Cl)cc(Cl)c1 [Example 67, 4-[(3,5-dichlorophenyl)amino]-6-[(2-morpholin-4-ylethyl)amino]-1,7-naphthyridine-3-carbonitrile] | – | 4200 nM
N#Cc1cnc2cnc(NCc3ccncc3)cc2c1Nc1ccc(F)c(Cl)c1 [Example 119, 4-(3-chloro-4-fluorophenylamino)-6-(pyridin-4-ylmethylamino)-1,7-naphthyridine-3-carbonitrile] | 31 nM | –
C[C@@H](Nc1cc2c(N[C@H](C)c3ccccc3)c(C#N)cnc2cn1)c1ccccc1 [Example 131, 4,6-bis{[(1R)-1-phenylethyl]amino}-1,7-naphthyridine-3-carbonitrile] | 560 nM | –
C[C@@H](O)CNc1cc2c(Nc3ccc(F)c(Cl)c3)c(C#N)cnc2cn1 [Example 55, 4-[(3-chloro-4-fluorophenyl)amino]-6-{[(2R)-2-hydroxypropyl]amino}-1,7-naphthyridine-3-carbonitrile] | – | 1500 nM
N#Cc1cnc2cnc(N[C@@H]3CCc4ccccc43)cc2c1Nc1ccc(F)c(Cl)c1 [Example 73] | – | 430 nM
N#Cc1cnc2cnc(NCc3c(Cl)cccc3Cl)cc2c1Nc1ccc(F)c(Cl)c1 [Example 126, 4-[(3-chloro-4-fluorophenyl)amino]-6-[(2,6-dichlorobenzyl)amino]-1,7-naphthyridine-3-carbonitrile] | 24600 nM | –
CC(C)c1cccc(Nc2c(C#N)cnc3cnc(OCCN4CCOCC4)cc23)c1 [Example 36, 4-[(3-isopropylphenyl)amino]-6-(2-morpholin-4-ylethoxy)-1,7-naphthyridine-3-carbonitrile] | – | > 40000 nM
N#Cc1cnc2cnc(F)cc2c1Nc1cccc([N+](=O)[O-])c1 [Example 105, 6-fluoro-4-[(3-nitrophenyl)amino]-1,7-naphthyridine-3-carbonitrile] | > 10000 nM | –
N#Cc1cnc2cnc(NC3CCCCCC3)cc2c1Nc1ccc(F)c(Cl)c1 [Example 144, 4-[(3-chloro-4-fluorophenyl)amino]-6-(cycloheptylamino)-1,7-naphthyridine-3-carbonitrile] | 5200 nM | –
N#Cc1cnc2cnc(NCc3cccnc3)cc2c1NC1CC1 [Example 111, 4-(cyclopropylamino)-6-[(pyridin-3-ylmethyl)amino]-1,7-naphthyridine-3-carbonitrile] | 2800 nM | –
N#Cc1cnc2cnc(NCc3cccnc3)cc2c1Nc1ccc(Cl)cc1 [Example 16, 4-(4-chlorophenylamino)-6-(pyridin-3-ylmethylamino)-1,7-naphthyridine-3-carbonitrile] | – | > 10000 nM
N#Cc1cnc2cnc(NCc3cccnc3)cc2c1Nc1ccc(F)cc1 [Example 9, 4-(4-fluorophenylamino)-6-(pyridin-3-ylmethylamino)-1,7-naphthyridine-3-carbonitrile] | – | 1700 nM
N#Cc1cnc2cnc(NCc3cccnc3)cc2c1NC1CCCC1 [Example 112, 4-(cyclopentylamino)-6-[(pyridin-3-ylmethyl)amino]-1,7-naphthyridine-3-carbonitrile] | 320 nM | –
N#Cc1cnc2cnc(NCc3cccnc3)cc2c1Nc1ccc(Sc2ccccc2)cc1 [Example 19, 4-(4-(phenylthio)phenylamino)-6-(pyridin-3-ylmethylamino)-1,7-naphthyridine-3-carbonitrile] | – | 9 nM
CCN1CCC[C@H]1CNc1cc2c(Nc3ccc(F)c(Cl)c3)c(C#N)cnc2cn1 [Example 74] | – | 180 nM
CC(C)c1cccc(Nc2c(C#N)cnc3cnc(F)cc23)c1 [Example 97, 6-fluoro-4-[(3-isopropylphenyl)amino]-1,7-naphthyridine-3-carbonitrile] | > 40000 nM | –

The next lines start with the values.

IC50 [1] | IC50 [2] | SMILES
2400 nM | – | N#Cc1cnc2cnc(NCCN3CCN(Cc4ccccc4)CC3)cc2c1Nc1ccc(F)c(Cl)c1 [Example 117, 6-(2-(4-benzylpiperazin-1-yl)ethylamino)-4-(3-chloro-4-fluorophenylamino)-1,7-naphthyridine-3-carbonitrile]
– | 36000 nM | C[C@H](Nc1cc2c(Nc3ccc(F)c(Cl)c3)c(C#N)cnc2cn1)c1ccccc1 [Example 57, 4-[(3-chloro-4-fluorophenyl)amino]-6-{[(1S)-1-phenylethyl]amino}-1,7-naphthyridine-3-carbonitrile]
– | 1500 nM | N#Cc1cnc2cnc(N[C@H]3CCc4ccccc43)cc2c1Nc1ccc(F)c(Cl)c1 [Example 72]
920 nM | – | C[C@@H](Nc1cc2c(NC3CCCCCC3)c(C#N)cnc2cn1)c1ccccc1 [Example 133, 4-(cycloheptylamino)-6-{[(1R)-1-phenylethyl]amino}-1,7-naphthyridine-3-carbonitrile]
2500 nM | – | N#Cc1cnc2cnc(NCCN3CCCCC3)cc2c1Nc1ccc(F)c(Cl)c1 [Example 122, 4-[(3-chloro-4-fluorophenyl)amino]-6-[(2-piperidin-1-ylethyl)amino]-1,7-naphthyridine-3-carbonitrile]
– | > 40000 nM | N#Cc1cnc2cnc(OCCN3CCOCC3)cc2c1Nc1ccc(F)c(Cl)c1 [Example 39, 4-[(3-chloro-4-fluorophenyl)amino]-6-(2-morpholin-4-ylethoxy)-1,7-naphthyridine-3-carbonitrile]
– | > 10000 nM | CS(=O)(=O)Nc1cccc(Nc2c(C#N)cnc3cnc(NCCN4CCOCC4)cc23)c1 [Example 85, N-(3-(3-cyano-6-(2-morpholinoethylamino)-1,7-naphthyridin-4-ylamino)phenyl)methanesulfonamide]
– | 2400 nM | N#Cc1cnc2cnc(NC(CN3CCOCC3)c3ccccc3)cc2c1Nc1ccc(F)c(Cl)c1 (centres unmarked) [Example 60, 4-[(3-chloro-4-fluorophenyl)amino]-6-[(2-morpholin-4-yl-1-phenylethyl)amino]-1,7-naphthyridine-3-carbonitrile]
– | > 40000 nM | Cc1cccc(Nc2c(C#N)cnc3cnc(NCc4cccnc4)cc23)c1 [Example 29, 4-(3-methylphenylamino)-6-(pyridin-3-ylmethylamino)-1,7-naphthyridine-3-carbonitrile]
> 40000 nM | – | N#Cc1cnc2cnc(F)cc2c1NCc1ccc(F)c(Cl)c1 [Example 98, 4-[(3-chloro-4-fluorobenzyl)amino]-6-fluoro-1,7-naphthyridine-3-carbonitrile]
– | 940 nM | C[C@@H](Nc1cc2c(Nc3cc(Cl)cc(Cl)c3)c(C#N)cnc2cn1)c1ccccc1 [Example 68]
